Assay results from ChEMBL document CHEMBL3044586, “Design, synthesis, and anticonvulsant screening of some substituted piperazine and aniline derivatives of 5-phenyl-oxazolidin-2,4-diones and 5,5-diphenylimidazolidin-2,4 diones” (Med Chem Res, 2012).
Active and inactive are the calls of the source. The calls are words filed in the database; no cut-off is given here.

Columns and labels:
[1] = system: Rattus norvegicus; experiment: Presynaptic agonist activity at 5HT1A receptor in Rattus norvegicus Wistar (rat) assessed as change in rectal temperature at 10 mg/kg, ip measured after 90 min (reference value: -0.2 +/- 0.1 degC); format: functional, organism-based; design: dose 10 mg/kg
[2] = system: Rattus norvegicus; experiment: Neurotoxicity against Rattus norvegicus Wistar (rat) assessed as inability to maintain equilibrium on rod at 30 mg/kg, po measured after 4 hr by rotarod test; format: toxicity, organism-based; design: dose 30 mg/kg, route oral; conditions: in vivo
[3] = system: Rattus norvegicus; experiment: Presynaptic agonist activity at 5HT1A receptor in Rattus norvegicus Wistar (rat) assessed as change in rectal temperature at 10 mg/kg, ip measured after 120 min (reference value: 0.0 +/- 0.1 degC); format: functional, organism-based; design: dose 10 mg/kg
[4] = system: Rattus norvegicus; experiment: Anticonvulsant activity in Rattus norvegicus Wistar (rat) assessed as reduction in maximal electroshock-induced seizures at 30 mg/kg, po measured after 4 hr; format: functional, organism-based; design: dose 30 mg/kg
[5] = system: Rattus norvegicus; experiment: Presynaptic agonist activity at 5HT1A receptor in Rattus norvegicus Wistar (rat) assessed as change in rectal temperature at 20 mg/kg, ip measured after 60 min (reference value: 0.0 +/- 0.1 degC); format: functional, organism-based; design: dose 20 mg/kg
[6] = system: Rattus norvegicus; experiment: Presynaptic agonist activity at 5HT1A receptor in Rattus norvegicus Wistar (rat) assessed as change in rectal temperature at 10 mg/kg, ip measured after 30 min (reference value: -0.1 +/- 0.1 degC); format: functional, organism-based; design: dose 10 mg/kg
[7] = system: Mus musculus; experiment: Neurotoxicity against Mus musculus Swiss albino (mouse) assessed as inability to maintain equilibrium on rod at 30 to 300 mg/kg, ip measured after 4 hr by rotarod test; format: toxicity, organism-based; design: dose 30-300 mg/kg, route intraperitoneal; conditions: in vivo
[8] = system: Mus musculus; experiment: Neurotoxicity against Mus musculus Swiss albino (mouse) assessed as inability to maintain equilibrium on rod at 30 to 300 mg/kg, ip measured after 0.5 hr by rotarod test; format: toxicity, organism-based; design: dose 30-300 mg/kg, route intraperitoneal; conditions: in vivo
[9] = system: Mus musculus; experiment: Anticonvulsant activity in Mus musculus Swiss albino (mouse) assessed as reduction in maximal electroshock-induced seizure at 300 mg/kg, ip measured after 0.5 hr; format: functional, organism-based; design: dose 300 mg/kg
[10] = system: Rattus norvegicus; experiment: Presynaptic agonist activity at 5HT1A receptor in Rattus norvegicus Wistar (rat) assessed as change in rectal temperature at 20 mg/kg, ip measured after 90 min (reference value: -0.2 +/- 0.1 degC); format: functional, organism-based; design: dose 20 mg/kg
[11] = system: Rattus norvegicus; experiment: Postsynaptic agonist activity at 5HT1A receptor in Rattus norvegicus Wistar (rat) assessed as increase in lower lip retraction at 10 to 20 mg/kg, ip measured after 15 min; format: functional, organism-based
[12] = system: Mus musculus; experiment: Binding affinity to 5HT2A receptor in ip dosed Mus musculus Swiss albino (mouse) assessed as effect on +/-DOI-induced head twitching administered 60 min prior to +/-DOI-challenge measured for 20 min; format: functional, organism-based
[13] = system: Mus musculus; experiment: Anticonvulsant activity in Mus musculus Swiss albino (mouse) assessed as reduction in maximal electroshock-induced seizure at 100 mg/kg, ip measured after 0.5 hr; format: functional, organism-based; design: dose 100 mg/kg
[14] = system: Rattus norvegicus; experiment: Presynaptic agonist activity at 5HT1A receptor in Rattus norvegicus Wistar (rat) assessed as change in rectal temperature at 20 mg/kg, ip measured after 120 min (reference value: 0.0 +/- 0.1 degC); format: functional, organism-based; design: dose 20 mg/kg
[15] = system: Rattus norvegicus; experiment: Presynaptic agonist activity at 5HT1A receptor in Rattus norvegicus Wistar (rat) assessed as change in rectal temperature at 10 mg/kg, ip measured after 60 min (reference value: 0.0 +/- 0.1 degC); format: functional, organism-based; design: dose 10 mg/kg
[16] = system: Rattus norvegicus; experiment: Anticonvulsant activity in Rattus norvegicus Wistar (rat) assessed as reduction in maximal electroshock-induced seizures at 30 mg/kg, po measured after 0.5 hr; format: functional, organism-based; design: dose 30 mg/kg
[17] = system: Mus musculus; experiment: Anticonvulsant activity in Mus musculus Swiss albino (mouse) assessed as reduction in maximal electroshock-induced seizure at 100 mg/kg, ip measured after 4 hr; format: functional, organism-based; design: dose 100 mg/kg
[18] = system: Rattus norvegicus; experiment: Presynaptic agonist activity at 5HT1A receptor in Rattus norvegicus Wistar (rat) assessed as change in rectal temperature at 20 mg/kg, ip measured after 30 min (reference value: -0.1 +/- 0.1 degC); format: functional, organism-based; design: dose 20 mg/kg
[19] = system: Rattus norvegicus; experiment: Neurotoxicity against Rattus norvegicus Wistar (rat) assessed as inability to maintain equilibrium on rod at 30 mg/kg, po measured after 0.5 hr by rotarod test; format: toxicity, organism-based; design: dose 30 mg/kg, route oral; conditions: in vivo
[20] = system: Rattus norvegicus; experiment: Presynaptic antagonist activity at 5HT1A receptor in Rattus norvegicus Wistar (rat) assessed as change in rectal temperature at 0.1 mg/kg, sc measured after 60 min (reference value: 0.0 +/- 0.1 degC); format: functional, organism-based; design: dose 0.1 mg/kg
[21] = system: Rattus norvegicus; experiment: Presynaptic antagonist activity at 5HT1A receptor in Rattus norvegicus Wistar (rat) assessed as change in rectal temperature at 0.1 mg/kg, sc measured after 120 min (reference value: 0.0 +/- 0.1 degC); format: functional, organism-based; design: dose 0.1 mg/kg
[22] = system: Rattus norvegicus; experiment: Postsynaptic antagonist activity at 5HT1A receptor in Rattus norvegicus Wistar (rat) assessed as inhibition of 8-OH-DPAT-induced lower lip retraction at 0.1 mg/kg, sc administered 45 min prior to 8-OH-DPAT-challenge measured after 15 min; format: functional, organism-based; design: dose 0.1 mg/kg
[23] = system: Rattus norvegicus; experiment: Antagonist activity at 5HT1A receptor in Rattus norvegicus Wistar (rat) assessed as change in rectal temperature at 0.1 mg/kg, sc measured after 30 min (reference value: -0.1 +/- 0.1 degC); format: functional, organism-based; design: dose 0.1 mg/kg
[24] = system: Rattus norvegicus; experiment: Presynaptic antagonist activity at 5HT1A receptor in Rattus norvegicus Wistar (rat) assessed as change in rectal temperature at 0.1 mg/kg, sc measured after 90 min (reference value: -0.2 +/- 0.1 degC); format: functional, organism-based; design: dose 0.1 mg/kg
[25] = system: Mus musculus; experiment: Anticonvulsant activity in Mus musculus Swiss albino (mouse) assessed as reduction in maximal electroshock-induced seizure at 30 mg/kg, ip measured after 4 hr; format: functional, organism-based; design: dose 30 mg/kg
[26] = system: Mus musculus; experiment: Neurotoxicity against Mus musculus Swiss albino (mouse) assessed as inability to maintain equilibrium on rod at 100 mg/kg, ip measured after 0.5 hr by rotarod test; format: toxicity, organism-based; design: dose 100 mg/kg, route intraperitoneal; conditions: in vivo
[27] = system: Mus musculus; experiment: Neurotoxicity against Mus musculus Swiss albino (mouse) assessed as inability to maintain equilibrium on rod at 100 mg/kg, ip measured after 4 hr by rotarod test; format: toxicity, organism-based; design: dose 100 mg/kg, route intraperitoneal; conditions: in vivo
[28] = system: Mus musculus; experiment: Anticonvulsant activity in Mus musculus Swiss albino (mouse) assessed as reduction in maximal electroshock-induced seizure at 30 mg/kg, ip measured after 0.5 hr; format: functional, organism-based; design: dose 30 mg/kg

With COc1ccc(NCCN2C(=O)NC(c3ccccc3)(c3ccccc3)C2=O)cc1 the deltaT [1] was -0.8 °C, the Activity [2] was “Non-toxic” and the deltaT [3] was -0.6 °C. For the same molecule, the Activity [4] was “inactive”, the deltaT [5] was -1.5 °C and the deltaT [6] was -0.5 °C. The Activity [7] was “Non-toxic”, the Activity [8] was “Non-toxic” and the Activity [9] was “Active”. For the same molecule, the deltaT [10] was -1.8 °C, the Activity [11] was “Active” and the Activity [12] was “inactive”. For the same molecule, the Activity [13] was “Active”, the deltaT [14] was -1.3 °C and the deltaT [15] was -0.6 °C. For the same molecule, the Activity [16] was “inactive”, the Activity [17] was “Active” and the deltaT [18] was -1.2 °C. The Activity [19] was “Non-toxic”.

COc1ccccc1N1CCN(CCN(C(=O)C2CCCCC2)c2ccccn2)CC1 was tested, and the deltaT [20] was 0.2 °C, the deltaT [21] was 0.2 °C and the inhibition [22] was “Active”. For the same molecule, the deltaT [23] was 0.2 °C and the deltaT [24] was 0.1 °C.

For O=C1NC(=O)C(c2ccccc2)(c2ccccc2)N1 [PHENYTOIN], the Activity [2] was “Non-toxic”, the Activity [25] was “Active” and the Activity [4] was “Active”. The Activity [26] was “Toxic”, the Activity [27] was “Toxic” and the Activity [16] was “Active”. For the same molecule, the Activity [28] was “Active” and the Activity [19] was “Non-toxic”.
